Holding throughout (test): DTP human tumour cell line panel, 48 h
The test system of experiment [1] is COLO 205 colon.
Experiment [2] deals with HCC-2998 colon.
The test system of experiment [3] is KM12 colon.
Experiment [4] relates to MALME-3M melanoma.
Experiment [5] deals with NCI-H23 lung.
Experiment [6] concerns OVCAR-8 ovarian.
Experiment [7] has as its system SK-MEL-2 melanoma.
In experiment [8] the test system is SN12C renal.
Experiment [9] concerns CCRF-CEM leukemia.
In experiment [10] the test system is PC-3 prostate.

The values below come from PubChem BioAssay (NCI).

Broadly, the TGI is the concentration giving total growth inhibition. High values mean less potent growth arrest, low ones more potent growth arrest. In general, GI50 refers to the concentration at which growth is held to half of that of the control.

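Briefly, cells in 96-well plates were exposed to five compound concentrations for 48 h, and endpoints were estimated by linear interpolation. Abbreviation: GI50, concentration required for 50% inhibition of growth. Definition used: TGI = concentration required for complete inhibition of growth.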

Consider `O=c1[nH]c(-c2ccccc2)nc2ccc(Cl)cc12`, for which the TGI in experiment [1], in experiment [2], in experiment [3], in experiment [4], in [5] and in [6] was greater than 100 µM in each case. In addition, the TGI in experiment [7] and in [8] was greater than 100 µM each time.

In the case of `O=C(O)CNS(=O)(=O)c1ccc(NC(=O)c2ccc(F)cc2)cc1`, the TGI in [9], in [1], in experiment [2], in experiment [3], in experiment [4] and in [5] was greater than 100 µM in each case. In addition, the TGI in experiment [6], in experiment [7] and in [8] was greater than 100 µM each time.

As to `O=C1O[C@H](C(Cl)(Cl)Cl)N2CCCC12` (stereo not given in full), the TGI in experiment [9], in [1], in experiment [3], in experiment [4], in experiment [5] and in experiment [6] was greater than 100 µM in each case. Further, the TGI in experiment [7] and in experiment [8] was greater than 100 µM each time.

Regarding `N#Cc1c2ccccc2c2n1-c1ccccc1OC(c1ccccc1)C2=O` (stereo not given), the GI50 was 2.66 µM in experiment [9]; 4.67 µM in [1]; 15.5 µM in experiment [2]; 3.32 µM in experiment [3]; 11.7 µM in experiment [4]; 2.95 µM in experiment [5]. For the same compound, the GI50 in experiment [6] is 3.26 µM; in [10], 2.77 µM; in [8], 3.48 µM. The TGI was 10.9 µM in experiment [9]; 16.4 µM in experiment [1]; 85.8 µM in experiment [2]; 10.8 µM in experiment [3]; 30.6 µM in experiment [4]; 15 µM in experiment [5]. Also, the TGI was 15.7 µM in experiment [6], 13.5 µM in [10] and 14.9 µM in experiment [8].

As for `COC(=O)Nc1nc2ccc(Oc3ccc(NC(=O)Nc4cccc(Br)c4)cc3)cc2[nH]1`, the GI50 was 1.59 µM in [9]; 1.48 µM in [1]; 6.04 µM in [2]; 0.119 µM in experiment [3]; 1.41 µM in experiment [4]; 3.23 µM in experiment [5]. Moreover, the GI50 in experiment [6] was 4.32 µM; in [10] it was 1.85 µM; in experiment [8], 4.65 µM. Further, the TGI in [9] is greater than 25 µM; in [1], 7 µM; in [2], greater than 25 µM; in experiment [3], 3.97 µM; in [4] it was 9.14 µM; in [5], greater than 17.1 µM. Also, the results for the TGI in experiment [6], in experiment [10] and in experiment [8] were greater than 20 µM, greater than 12.7 µM and greater than 25 µM, respectively.

On to `Cn1ccnc1C(c1nccn1C)C(C)(C)[N+](=O)[O-]`, for which the TGI in experiment [9], in experiment [1], in experiment [2], in experiment [3], in [6] and in [7] was greater than 100 µM throughout. In addition, the TGI in experiment [8] is greater than 100 µM.

On to `CCOCC(=O)N[C@H]1CCc2cc(OC)c(OC)c(OC)c2-c2ccc(SC)c(=O)cc21`, for which the TGI is greater than 70.2 µM in experiment [9]; less than 0.01 µM in [1]; less than 0.0631 µM in experiment [3]; greater than 100 µM in experiment [4]; 9.64 µM in experiment [5]; 4.64 µM in [6]. In addition, the TGI in experiment [10] is greater than 25.3 µM; in experiment [8], greater than 100 µM.

In the case of `C=CCC12CCC(=O)C=C1CCC1(C2)OCCO1` (stereo not given), the TGI in experiment [9], in [1], in [2], in [3], in [4] and in experiment [6] was greater than 100 µM throughout. Besides, the TGI in experiment [7] and in experiment [8] was greater than 100 µM in each case.

In the case of `NC1CCCCC1N.O=C([O-])P(=O)([O-])[O-].[Na+].[Pt+4]` (stereo not given), the GI50 is greater than 100 µM in [9]; greater than 100 µM in [3]; 84.3 µM in experiment [4]; greater than 100 µM in [5]; 98.2 µM in experiment [6]; greater than 100 µM in experiment [8]. For the same compound, the TGI in [9], in [3], in experiment [4], in experiment [5], in [6] and in [8] was greater than 100 µM in each case.

As to `COc1ccccc1/C=C1\CCC(CNc2ccc(Cl)cc2)C1=O` (stereo not given), the TGI in experiment [9] was 19.7 µM; in experiment [1] it was greater than 32.7 µM; in experiment [2], 18.8 µM; in experiment [3] it was 10 µM; in experiment [4], 28.4 µM; in experiment [5], 20.8 µM. The TGI was determined as 20.7 µM in experiment [6], 26.7 µM in [7] and 26.5 µM in [8].

As for `CC1=C(C)CC2(SC1)C(=O)c1ccccc1C2=O`, the concentration for total growth inhibition (TGI) in [9], in experiment [1], in [2], in experiment [3], in [4] and in experiment [6] was greater than 100 µM each time. The TGI in [7] and in experiment [8] was greater than 100 µM throughout.

Regarding `ON(CCc1ccncc1)Cc1ccccc1`, the TGI in experiment [1], in experiment [3], in experiment [4], in experiment [5], in experiment [6] and in experiment [8] was greater than 100 µM in each case.

With `Cc1ccc(C(=O)O/N=C2/CCCCC2CN(C)C)cc1` (stereo not given), the TGI in [9], in [1], in experiment [2], in experiment [3], in [4] and in experiment [5] was greater than 100 µM each time. Besides, the TGI in experiment [6], in experiment [7] and in experiment [8] was greater than 100 µM in each case.

Take `O=C1CCC2CCc3cccc4oc1c2c34` (stereo not given): the TGI in experiment [9], in experiment [1], in experiment [2], in experiment [5], in experiment [6] and in [8] was greater than 100 µM in each case.

For the compound `Oc1ccc2occ3c2c1CCC3`, the TGI in experiment [9], in [1], in experiment [2], in experiment [5], in experiment [6] and in [8] was greater than 100 µM throughout.

With `CN(C)c1ccc(/C=C/C(=O)C(C)(C)C)cc1Br`, the TGI in [9] was 85.1 µM; in [1], 67.2 µM; in experiment [2], 73.9 µM; in [3], 56.1 µM; in experiment [4] it was greater than 100 µM; in [5] it was 75.9 µM. Also, the results for the TGI in experiment [6], in experiment [7] and in experiment [8] were 54.1 µM, 36.7 µM and 76 µM, respectively.

As to `O=S(=O)([O-])[O-].[Cl-].[NH2-].[NH2-].[NH2-].[NH2-].[Ru+3].c1ccc(-c2cccnc2)cc1`, the GI50 in experiment [9], in experiment [1], in [2], in experiment [3], in experiment [4] and in [5] was greater than 100 µM in each case. Besides, the GI50 in experiment [6], in [7] and in experiment [8] was greater than 100 µM in each case. Besides, the TGI in [9], in experiment [1], in experiment [2], in experiment [3], in experiment [4] and in [5] was greater than 100 µM throughout. The TGI in experiment [6], in experiment [7] and in experiment [8] was greater than 100 µM in each case.

With `COc1cc(N=Nc2ccccc2)cc(/C=N\[N-]C(N)=S)c1[O-].COc1cc(N=Nc2ccccc2)cc(/C=N\[N-]C(N)=S)c1[O-].[Fe+4]`, the GI50 in experiment [9] is 15.8 µM; in experiment [1] it was 24.3 µM; in experiment [2] it was 29.7 µM; in experiment [3] it was 23 µM; in experiment [4], 59.6 µM; in experiment [5], 21.1 µM. Also, the values for the GI50 in [6] and in [7] were 29.1 µM and 7.72 µM, respectively. The TGI in experiment [9] was 92.6 µM; in [1] it was 61.3 µM; in [2], greater than 100 µM; in [3] it was greater than 100 µM; in experiment [4], greater than 100 µM; in [5] it was greater than 100 µM. Also, the figures for the TGI in [6] and in [7] were greater than 100 µM and 50.4 µM, respectively.

For the compound `CCN(CC)c1ccc(N=C2C=CC(=O)c3ncccc32)c(C)c1`, the TGI in experiment [9] turned out to be 14.6 µM; in experiment [1] it was 5.04 µM; in [2], 24.2 µM; in [3], 27.1 µM; in experiment [4], 12.5 µM; in experiment [5], 18.6 µM. Besides, the TGI in experiment [6] was found to be 10.5 µM; in [7], 29 µM; in experiment [8], 20.1 µM.

As to `COc1ccc(S(=O)(=O)N/N=C/CN2C(=O)c3ccccc3C2=O)cc1OC`, the TGI in [9], in experiment [1], in experiment [2], in experiment [3], in experiment [4] and in experiment [5] was greater than 100 µM in each case. The TGI in experiment [6] and in experiment [7] was greater than 100 µM each time.

As to `CC(C)COC(=O)N1N=NC2C3OC(CC3=O)C21` (stereo not given), the TGI in [9], in [1], in [2], in experiment [3], in experiment [4] and in experiment [5] was greater than 100 µM throughout. In addition, the total growth inhibition concentration (TGI) in [6], in experiment [7] and in experiment [8] was greater than 100 µM in each case.

Consider `OCCN(CCO)c1cccc(N(CCO)CCO)c1`, for which the TGI in experiment [9], in [1], in [3], in experiment [5], in experiment [6] and in experiment [7] was greater than 100 µM each time.

`Cc1cc(=O)c2cc(N=Cc3ccc([N+](=O)[O-])o3)ccc2o1`: the TGI in experiment [9], in experiment [1], in experiment [2], in experiment [3], in experiment [4] and in experiment [5] was greater than 100 µM each time. The TGI in experiment [7] and in experiment [8] was greater than 100 µM in each case.

With `CC(=O)O[C@H]1CC[C@@]2(C)C(CC[C@]3(C)C2CC[C@]2(C)Oc4c(C)cc(O)cc4C[C@@H]23)C1(C)C` (stereo not given in full), the TGI in experiment [9] came to 16.8 µM; in [1], 29.7 µM; in experiment [2], 22.2 µM; in experiment [3] it was 22.6 µM; in experiment [4], 22.8 µM; in experiment [5] it was 21.6 µM. The TGI in [6] was 23.8 µM; in [7], 21.4 µM.

As for `CNS(=O)(=O)NN(C)S(=O)(=O)c1ccc(Cl)cc1`, the TGI in experiment [9], in [1], in experiment [2], in experiment [3], in experiment [4] and in [5] was greater than 100 µM in each case. Moreover, the TGI in experiment [6], in experiment [7] and in experiment [8] was greater than 100 µM each time.

On to `CCN(CC)CC(=O)/C=C/c1ccc(C)cc1`, for which the TGI in experiment [1] is 34.5 µM; in experiment [2], 31.7 µM; in experiment [3], 39 µM; in [4] it was 41.2 µM; in [5] it was greater than 100 µM; in experiment [6], 43.8 µM. Besides, the TGI in [8] stood at 33.4 µM.

In the case of `N#CCCN(CCC#N)c1ccc(/C=C2\N=C(COc3ccc(Cl)cc3Cl)OC2=O)cc1`, the TGI in experiment [9], in [1], in [2], in experiment [3], in [4] and in [5] was greater than 100 µM throughout. The TGI in experiment [6], in [7] and in experiment [8] was greater than 100 µM in each case.

With `O=c1[nH]c(=O)n(C2CC(O)C(CO)O2)cc1C(OCC(F)(F)F)OCC(F)(F)F` (stereo not given), the TGI in experiment [9], in experiment [1], in experiment [2], in experiment [3], in [4] and in [5] was greater than 100 µM each time. Besides, the TGI in experiment [6], in experiment [7] and in experiment [8] was greater than 100 µM each time.
